≈ marks a conversion by molar mass, not a printed value. Where two headings read alike, the source gives them in different places.
What was measured:
THP-1 cells = experiment: In vitro cytotoxicity assay (WST-1); format: cell-based; settings: Homo sapiens; THP-1, 24 h, ± SD, n = 6; read-out: IC50
Experimental: Preliminary in vitro cytotoxicity screening of the investigated compounds was performed using human monocytic leukemia THP-1 cells, see Table 2. The ability to inhibit the human cancer cell viability (IC50) of the compounds was compared to camptothecin toxicity (0.16 ± 0.07 μM). […] However, these values are up to two orders of magnitude higher than their significant antistaphyloccocal concentrations. This fact is also taken into account in the calculated selectivity index (SI), Table 2, where for only three compounds the SI is <20, while for the rest of the agents SI is >20, and for some derivatives even 100 and more. Thus, based on all these observations, it can be concluded that all the tested derivatives can be considered as in vitro non-toxic compounds for the subsequent design of new therapeutic agents.
The human THP-1 cell line (European Collection of Cell Cultures, Salisbury, UK) was cultured in RPMI 1640 medium supplemented with 10% fetal bovine serum, 2% L-glutamine, 1% penicillin, and streptomycin at 37 °C with 5% CO2. Cells were passaged at approximately 1-week intervals. All the tested compounds were prepared and dissolved as mentioned in our previous work.

[1] = system: Enterococcus faecalis ATCC 29212; experiment: MIC, microtitration broth method; format: cell-based; settings: for MIC: ATCC29212, EF = Enterococcus faecalis, 24 h, read-out: MIC
Experimental: (§1) In vitro antibacterial activity of the synthesized compounds was evaluated against representatives of multidrug-resistant bacteria, three clinical isolates of methicillin-resistant S. aureus: clinical isolate of animal origin, MRSA 63718 (Department of Infectious Diseases and Microbiology, Faculty of Veterinary Medicine, University of Veterinary Sciences Brno, Czech Republic), carrying the mecA gene; and MRSA SA 630 [46] and MRSA SA 3202 [46] (National Institute of Public Health, Prague, Czech Republic), both of human origin. Suspected colonies were confirmed by PCR; a 108bp fragment specific for S. aureus was detected. All isolates were tested for the presence of the mecA gene encoding methicillin resistance. […] Vancomycin-susceptible methicillin-susceptible S. aureus (VS-MSSA) ATCC 29213, obtained from the American Type Culture Collection, was used as the reference and quality control strain. Enterococcus faecalis ATCC 29212 was obtained from the American Type Culture Collection and used as the reference and quality control strain.
(§2) The minimum inhibitory concentrations (MICs) were evaluated by the microtitration broth method according to the CLSI [64, 65] with some modifications. The compounds were dissolved in DMSO (Sigma, St. Louis, MO, USA) to get a concentration […] and diluted in a microtitration plate in an appropriate medium, namely, Cation Adjusted Mueller–Hinton (CaMH, Oxoid, Basingstoke, UK) for staphylococci (S. aureus ATCC 29213, clinical isolates of MRSA 63718, SA 630, and SA 3202) and brain heart infusion (BHI, Oxoid) for E. faecalis ATCC 29212, to reach the final concentration of 256-0.125 µg/mL. The plate was inoculated by the tested microorganisms. The final concentration of bacterial cells was 10^5 for bacteria. Ampicillin (Sigma) was used as reference drugs. A drug-free control and a sterility control were included. The plates were incubated for 24 h at 37 °C for staphylococci and E. faecalis ATCC 29212 (stability evaluation of the carbamates, see Supplementary materials, Table S1). […] The experiments were repeated three times.

MRSA SA 630 [2] = experiment: MIC, microtitration broth method; format: cell-based; settings: Staphylococcus aureus
Experimental: (§3) All the investigated compounds were screened for in vitro antibacterial activity against the reference and quality control strain Staphylococcus aureus ATCC 29213 and clinical isolates of methicillin-resistant S. aureus (MRSA) 63718, SA 630, and SA 3202 [14]. Activities are expressed as the minimum inhibitory concentrations (MICs), see Table 2. In addition to the MICs, the minimum bactericidal concentrations (MBCs) were also determined.
as §1, §2

MRSA 63718 [3] = experiment: MIC, microtitration broth method; format: cell-based; settings: Staphylococcus aureus
Experimental: as §3, §1, §2

[4] = system: Staphylococcus aureus ATCC 29213; experiment: MIC, microtitration broth method; format: cell-based; settings: ATCC29213, SA = S. aureus ATCC 29213, 24 h, read-out: MIC
Experimental: as §3, §1, §2

MRSA SA 3202 [5] = experiment: MIC, microtitration broth method; format: cell-based; settings: Staphylococcus aureus
Experimental: as §3, §1, §2

[6] = Lipophilicity determination by RP-HPLC (log k, log D); format: physicochemical; settings: for log D6.5 / log D7.4 / log k: RP-HPLC; for log D6.5: MeOH 72%/acetate buffered saline pH 6.5; for log D7.4: MeOH 72%/acetate buffered saline pH 7.4; for log k: MeOH 72%/water 28%
Experimental: Lipophilicity was measured by reversed-phase high performance liquid chromatography (RP-HPLC) under isocratic conditions with methanol as the organic modifier in the aqueous mobile phase and the logarithm of the capacity factor k was calculated, which is used as the lipophilicity index converted to the log P scale. In addition to the log k values, the logarithm of the distribution coefficient DpH at pH 6.5 and 7.4 was determined to clarify the behavior of the compounds under physiological conditions and possible ionization. Instead of water, a buffer of suitable pH was used as part of the mobile phase. In addition to the above-mentioned experimental methods, commercially available ChemBioDraw Ultra 13.0 and ACD/Percepta ver. […] In addition to lipophilicity, other parameters discussed in Ro5, such as molecular weight, number of H-bond donors/acceptors, as well as parameters not reported in Ro5, but characterizing the physicochemical properties of the prepared molecules, such as number of rotatable bonds, were predicted using ACD/Percepta. Moreover, for each R substituent, bulkiness expressed as molar volume (MV [cm^3]), a parameter describing the tail length/branching of each carbamates, was calculated.
A HPLC separation module Agilent 1200 Series (Agilent Technologies, Santa Clara, CA, USA) equipped with a Dual Absorbance Detector (DAD SL G1315C, Agilent Technologies) was used. A chromatographic column Symmetry® C18 5 μm, 4.6 × 250 mm, Part No. W21751W016 (Waters Corp, Milford, MA, USA) was used. The HPLC separation process was monitored by ChemStation for LC 3D systems (Agilent Technologies). […] The total flow of the column was 1.0 mL/min, injection 20 μL, column temperature 40 °C, and sample temperature 10 °C. The detection wavelength of 210 nm was chosen. A KI methanolic solution was used for the determination of the dead times (tD). Retention times (tR) were measured in minutes. The capacity factors k were calculated according to the formula k = (tR − tD)/tD, where tR is the retention time of the solute, and tD is the dead time obtained using an unretained analyte. The distribution coefficients DpH were calculated according to the formula DpH = (tR − tD)/tD. Each experiment was repeated three times.

MRSA SA 630 [7] = experiment: MBC, agar aliquot subculture method; format: cell-based; settings: Staphylococcus aureus
Experimental: as §3
(§4) For the S. aureus and MRSA isolates, the agar aliquot subculture method was used as a test for bactericidal agents. After the MIC value determination, the inoculum was transferred to Mueller–Hinton (Oxoid) agar using a multipoint inoculator. The plates were incubated in a thermostat at 37 °C for 24 h. The lowest concentration of test compound at which ≤5 colonies were obtained was then evaluated as MBC, corresponding to a 99.9% decrease in CFU relative to the original inoculum.

MRSA 63718 [8] = experiment: MBC, agar aliquot subculture method; format: cell-based; settings: Staphylococcus aureus
Experimental: as §3, §4

[9] = system: Staphylococcus aureus ATCC 29213; experiment: MBC, agar aliquot subculture method; format: cell-based; settings: ATCC29213, SA = S. aureus ATCC 29213, read-out: MBC
Experimental: as §3, §4

MRSA SA 3202 [10] = experiment: MBC, agar aliquot subculture method; format: cell-based; settings: Staphylococcus aureus
Experimental: as §3, §4

Row | SMILES | IC50 (THP-1 cells) | MIC [1] | MIC (MRSA SA 630 [2]; 24 h) | MIC (MRSA 63718 [3]; MRSA, 24 h) | MIC [4] | MIC (MRSA SA 3202 [5]; 24 h) | lipophilicity (experimental log k/log D, approximate) [6] | log D6.5 [6] | log D7.4 [6] | log k [6] | MBC (MRSA SA 630 [7]) | MBC (MRSA 63718 [8]; MRSA) | MBC [9] | MBC (MRSA SA 3202 [10]) | also measured
1 | O=C(NC1CCCCCC1)Oc1c(C(=O)Nc2cc(Cl)c(Cl)cc2Cl)ccc2ccccc12 [Compound 12, 2-[N-(2,4,5-Trichlorophenyl)carbamoyl]naphthalen-1-yl cycloheptyl carbamate] | 3.24 ± 0.12 µM | 127 µM (≈ 64.2 µg/mL) | 0.494 µM (≈ 0.25 µg/mL) | 0.247 µM (≈ 0.125 µg/mL) | 0.494 µM (≈ 0.25 µg/mL) | 0.494 µM (≈ 0.25 µg/mL) | ca. 1.45 | 1.4492 | 1.4527 | 1.4469 | 0.494 µM (≈ 0.25 µg/mL) | 0.247 µM (≈ 0.125 µg/mL) | 0.494 µM (≈ 0.25 µg/mL) | 0.494 µM (≈ 0.25 µg/mL) | –
2 | O=C(NC1CCCC1)Oc1c(C(=O)Nc2cc(Cl)c(Cl)cc2Cl)ccc2ccccc12 [Compound 10, 2-[N-(2,4,5-Trichlorophenyl)carbamoyl]naphthalen-1-yl cyclopentyl carbamate] | 3.23 ± 0.29 µM | 268 µM (≈ 128 µg/mL) | 0.262 µM (≈ 0.125 µg/mL) | 0.262 µM (≈ 0.125 µg/mL) | 0.262 µM (≈ 0.125 µg/mL) | 2.09 µM (≈ 0.999 µg/mL) | ca. 1.15 | 1.1521 | 1.1515 | 1.1481 | 1.05 µM (≈ 0.5 µg/mL) | 0.262 µM (≈ 0.125 µg/mL) | 0.262 µM (≈ 0.125 µg/mL) | 2.09 µM (≈ 0.999 µg/mL) | –
3 | CC[C@@]1(O)C(=O)OCc2c1cc1n(c2=O)Cc2cc3ccccc3nc2-1 [CMT, camptothecin, reference compound] | 0.16 ± 0.07 µM | – | – | – | – | – | – | – | – | – | – | – | – | – | –
4 | CCCCCNC(=O)Oc1c(C(=O)Nc2cc(Cl)c(Cl)cc2Cl)ccc2ccccc12 [Compound 5, 2-[N-(2,4,5-Trichlorophenyl)carbamoyl]naphthalen-1-yl pentyl carbamate] | 3.44 ± 0.04 µM | 267 µM (≈ 128 µg/mL) | 0.261 µM (≈ 0.125 µg/mL) | 0.261 µM (≈ 0.125 µg/mL) | 0.067 µM (≈ 0.0321 µg/mL) | 0.131 µM (≈ 0.0629 µg/mL) | – | 1.3072 | 1.3168 | 1.3051 | 0.521 µM (≈ 0.25 µg/mL) | 0.261 µM (≈ 0.125 µg/mL) | 0.067 µM (≈ 0.0321 µg/mL) | 0.131 µM (≈ 0.0629 µg/mL) | –
5 | CCCCCCCCNC(=O)Oc1c(C(=O)Nc2cc(Cl)c(Cl)cc2Cl)ccc2ccccc12 [Compound 8, 2-[N-(2,4,5-Trichlorophenyl)carbamoyl]naphthalen-1-yl octyl carbamate] | 2.61 ± 0.32 µM | 123 µM (≈ 64.2 µg/mL) | 0.479 µM (≈ 0.25 µg/mL) | 0.958 µM (≈ 0.5 µg/mL) | 0.479 µM (≈ 0.25 µg/mL) | 1.92 µM (≈ 1 µg/mL) | ca. 1.87 | 1.8687 | 1.8785 | 1.8654 | 1.92 µM (≈ 1 µg/mL) | 1.92 µM (≈ 1 µg/mL) | 0.958 µM (≈ 0.5 µg/mL) | 1.92 µM (≈ 1 µg/mL) | –
6 | CCCNC(=O)Oc1c(C(=O)Nc2cc(Cl)c(Cl)cc2Cl)ccc2ccccc12 [Compound 3, 2-[N-(2,4,5-Trichlorophenyl)carbamoyl]naphthalen-1-yl propyl carbamate] | 3.12 ± 0.07 µM | 283 µM (≈ 128 µg/mL) | 0.553 µM (≈ 0.25 µg/mL) | 0.139 µM (≈ 0.0628 µg/mL) | 0.035 µM (≈ 0.0158 µg/mL) | 0.071 µM (≈ 0.0321 µg/mL) | – | 0.9734 | 0.9793 | 0.9689 | 0.553 µM (≈ 0.25 µg/mL) | 0.277 µM (≈ 0.125 µg/mL) | 0.035 µM (≈ 0.0158 µg/mL) | 0.071 µM (≈ 0.0321 µg/mL) | –
7 | O=C(NC1CCCCC1)Oc1c(C(=O)Nc2cc(Cl)c(Cl)cc2Cl)ccc2ccccc12 [Compound 11, 2-[N-(2,4,5-Trichlorophenyl)carbamoyl]naphthalen-1-yl cyclohexyl carbamate] | 2.76 ± 0.24 µM | 65.1 µM (≈ 32 µg/mL) | 0.508 µM (≈ 0.25 µg/mL) | 0.254 µM (≈ 0.125 µg/mL) | 0.128 µM (≈ 0.063 µg/mL) | 0.508 µM (≈ 0.25 µg/mL) | – | 1.2952 | 1.2955 | 1.2911 | 1.02 µM (≈ 0.5 µg/mL) | 0.508 µM (≈ 0.25 µg/mL) | 0.508 µM (≈ 0.25 µg/mL) | 0.508 µM (≈ 0.25 µg/mL) | anti-enterococcal activity (in words) ([1]; E. faecalis ATCC 29212): moderate activity
8 | CC1(C)S[C@@H]2[C@H](NC(=O)[C@H](N)c3ccccc3)C(=O)N2[C@H]1C(=O)O [APM, ampicillin, reference compound] | – | – | – | – | 5.72 µM (≈ 2 µg/mL) | – | – | – | – | – | – | – | > 5.72 µM | – | MIC (MRSA SA 630 [2]; MRSA2 = SA 630, 24 h, read-out: MIC): 45.8 µM (≈ 16 µg/mL); MIC (MRSA 63718 [3]; MRSA1 = MRSA 63718, 24 h, read-out: MIC): 45.8 µM (≈ 16 µg/mL); MIC (MRSA SA 3202 [5]; MRSA3 = SA 3202, 24 h, read-out: MIC): 45.8 µM (≈ 16 µg/mL); MBC (MRSA SA 630 [7]; MRSA2 = SA 630, read-out: MBC): > 45.8 µM; MBC (MRSA 63718 [8]; MRSA1 = MRSA 63718, read-out: MBC): > 45.8 µM; MBC (MRSA SA 3202 [10]; MRSA3 = SA 3202, read-out: MBC): > 45.8 µM

Source: publication PMC9228535, “Antistaphylococcal Activities and ADME-Related Properties of Chlorinated Arylcarbamoylnaphthalenylcarbamates” (Pharmaceuticals, 2022)
